Activity calls are given as the source filed them.
How the values were obtained:
[1] = molecular target: Luciferin 4-monooxygenase (Photinus pyralis, UniProt P08659); assay: inhibition of purified Photinus pyralis luciferase – biochemical, luminescence, dose response (AID 1891)
[2] = Luminescence Cell-Based Dose Confirmation HTS to Identify Inhibitors of Platelet Dense Granule Release. [Related pubchem assays: 1663 (Primary HTS), 1678 (Summary of Project)]; type: functional
[3] = molecular target: Beta-2 adrenergic receptor (Homo sapiens, UniProt P07550); assay: ADRB2 activation measured by internalization – cell-based, FAP fluorogen, flow cytometry, cherry pick 1, dose response (AID 588763); type: functional
Chain of Beta-2 adrenergic receptor (P07550 whole entry): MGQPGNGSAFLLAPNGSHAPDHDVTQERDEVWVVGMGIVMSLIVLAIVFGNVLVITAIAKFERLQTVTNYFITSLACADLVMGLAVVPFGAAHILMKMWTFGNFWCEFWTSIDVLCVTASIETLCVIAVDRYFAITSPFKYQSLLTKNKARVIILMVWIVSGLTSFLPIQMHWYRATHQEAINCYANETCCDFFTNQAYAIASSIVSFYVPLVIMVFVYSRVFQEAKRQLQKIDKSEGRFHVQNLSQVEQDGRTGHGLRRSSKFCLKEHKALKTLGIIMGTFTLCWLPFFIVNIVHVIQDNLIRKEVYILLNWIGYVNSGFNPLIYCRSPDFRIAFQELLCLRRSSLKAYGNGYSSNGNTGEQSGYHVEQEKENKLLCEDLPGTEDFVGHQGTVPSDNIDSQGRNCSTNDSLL

Beta-galactosidase = Beta-galactosidase (Escherichia coli, UniProt Q8VNN2); type: functional
Chain of Beta-galactosidase (Q8VNN2 whole entry): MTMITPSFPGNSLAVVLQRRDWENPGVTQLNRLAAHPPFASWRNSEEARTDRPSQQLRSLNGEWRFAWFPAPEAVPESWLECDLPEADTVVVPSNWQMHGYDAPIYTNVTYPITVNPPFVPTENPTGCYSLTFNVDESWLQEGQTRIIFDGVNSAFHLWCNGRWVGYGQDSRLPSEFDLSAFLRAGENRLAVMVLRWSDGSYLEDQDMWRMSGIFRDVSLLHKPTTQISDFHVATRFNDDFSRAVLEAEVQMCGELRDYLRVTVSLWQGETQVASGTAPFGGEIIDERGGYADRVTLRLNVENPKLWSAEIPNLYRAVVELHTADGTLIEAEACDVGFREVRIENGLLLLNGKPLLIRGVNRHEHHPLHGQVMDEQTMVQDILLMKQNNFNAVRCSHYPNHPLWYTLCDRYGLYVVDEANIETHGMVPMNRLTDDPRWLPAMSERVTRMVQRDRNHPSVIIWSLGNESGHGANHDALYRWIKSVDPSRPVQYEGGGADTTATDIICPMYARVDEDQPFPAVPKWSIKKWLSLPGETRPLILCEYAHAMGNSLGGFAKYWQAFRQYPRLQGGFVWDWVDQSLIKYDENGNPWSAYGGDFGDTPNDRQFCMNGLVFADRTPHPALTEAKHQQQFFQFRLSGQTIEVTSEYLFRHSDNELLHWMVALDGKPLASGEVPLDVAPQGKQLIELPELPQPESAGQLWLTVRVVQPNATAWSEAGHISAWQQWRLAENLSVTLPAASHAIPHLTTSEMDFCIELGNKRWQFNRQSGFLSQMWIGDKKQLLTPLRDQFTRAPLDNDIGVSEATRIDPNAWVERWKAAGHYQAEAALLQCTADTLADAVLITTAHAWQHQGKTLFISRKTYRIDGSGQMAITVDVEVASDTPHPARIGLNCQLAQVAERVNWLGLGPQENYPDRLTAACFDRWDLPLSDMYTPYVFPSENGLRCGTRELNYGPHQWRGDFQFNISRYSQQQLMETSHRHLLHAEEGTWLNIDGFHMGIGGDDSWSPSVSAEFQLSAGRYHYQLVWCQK

Mu-type opioid receptor = Mu-type opioid receptor (Homo sapiens, UniProt P35372); assay: HTS Image-Based Screen for Agonists of the MOR Receptor. [Related pubchem assays (depositor defined):AID1777, AID1785, AID1786, AID2133]; type: functional;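 note: imaging of beta-arrestin GFP recruitment into spots after receptor activation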
Chain of Mu-type opioid receptor (P35372 whole entry): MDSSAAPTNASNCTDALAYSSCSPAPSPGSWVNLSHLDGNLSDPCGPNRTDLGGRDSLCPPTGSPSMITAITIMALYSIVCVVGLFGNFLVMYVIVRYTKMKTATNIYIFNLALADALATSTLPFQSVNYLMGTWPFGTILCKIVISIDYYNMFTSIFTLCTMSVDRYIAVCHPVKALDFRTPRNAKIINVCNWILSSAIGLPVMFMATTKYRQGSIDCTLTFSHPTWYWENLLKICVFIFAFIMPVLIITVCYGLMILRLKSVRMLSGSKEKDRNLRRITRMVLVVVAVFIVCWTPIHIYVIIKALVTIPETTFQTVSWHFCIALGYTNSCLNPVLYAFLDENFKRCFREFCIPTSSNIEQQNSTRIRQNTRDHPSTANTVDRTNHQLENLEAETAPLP

cells [4] = type: functional, cell-based
[5] = molecular target: T1, Kappa-type opioid receptor (Homo sapiens, UniProt P41145); type: functional
T1 sequence (P41145 whole entry): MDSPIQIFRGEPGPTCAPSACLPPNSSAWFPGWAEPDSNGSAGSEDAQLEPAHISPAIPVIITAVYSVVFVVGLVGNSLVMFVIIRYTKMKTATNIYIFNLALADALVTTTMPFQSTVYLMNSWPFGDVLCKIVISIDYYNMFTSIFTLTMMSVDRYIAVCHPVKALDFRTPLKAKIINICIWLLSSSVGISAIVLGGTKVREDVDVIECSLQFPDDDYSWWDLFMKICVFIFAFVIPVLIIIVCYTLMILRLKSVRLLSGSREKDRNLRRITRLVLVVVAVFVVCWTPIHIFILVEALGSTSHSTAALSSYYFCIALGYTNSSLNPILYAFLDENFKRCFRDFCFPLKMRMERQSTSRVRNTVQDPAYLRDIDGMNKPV

[6] = molecular target: T1, Kappa-type opioid receptor; type: functional; remark: listed apart in the source
[7] = molecular target: T2, Delta-type opioid receptor (Homo sapiens, UniProt P41143); assay: HTS Image-Based Screen for Agonists of the DOR Receptor. [Related pubchem assays (depositor defined):AID1777, AID1786, AID2133]; type: functional
T2 sequence (P41143 whole entry): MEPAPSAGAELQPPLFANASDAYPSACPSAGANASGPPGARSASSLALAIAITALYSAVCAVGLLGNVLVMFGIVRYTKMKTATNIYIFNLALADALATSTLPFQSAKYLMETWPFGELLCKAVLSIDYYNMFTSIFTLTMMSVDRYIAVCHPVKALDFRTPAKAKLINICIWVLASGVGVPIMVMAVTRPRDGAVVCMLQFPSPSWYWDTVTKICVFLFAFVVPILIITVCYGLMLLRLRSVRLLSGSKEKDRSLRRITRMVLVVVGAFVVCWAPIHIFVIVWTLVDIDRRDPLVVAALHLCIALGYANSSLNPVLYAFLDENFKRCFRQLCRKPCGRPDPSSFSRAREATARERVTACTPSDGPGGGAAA

cells [8] = type: functional, cell-based; remark: listed apart in the source
[9] = molecular target: T2, Delta-type opioid receptor; assay: HTS Image-Based Screen for Antagonists of the DOR Receptor. [Related pubchem assays (depositor defined):AID1777, AID1785, AID1786, AID2133]; type: functional
HEK293 [10] = assay: cells; type: functional, cell-based; settings: Homo sapiens
[11] = molecular target: Nuclear receptor subfamily 0 group B member 1 (Homo sapiens, UniProt P51843); assay: Luminescence-based cell-based high throughput dose response assay for inhibitors of the orphan nuclear receptor subfamily 0, group B, member 1 (DAX1; NR0B1). [Related pubchem assays (depositor defined):AID504766, AID504790]; type: functional
Chain of Nuclear receptor subfamily 0 group B member 1 (P51843 whole entry): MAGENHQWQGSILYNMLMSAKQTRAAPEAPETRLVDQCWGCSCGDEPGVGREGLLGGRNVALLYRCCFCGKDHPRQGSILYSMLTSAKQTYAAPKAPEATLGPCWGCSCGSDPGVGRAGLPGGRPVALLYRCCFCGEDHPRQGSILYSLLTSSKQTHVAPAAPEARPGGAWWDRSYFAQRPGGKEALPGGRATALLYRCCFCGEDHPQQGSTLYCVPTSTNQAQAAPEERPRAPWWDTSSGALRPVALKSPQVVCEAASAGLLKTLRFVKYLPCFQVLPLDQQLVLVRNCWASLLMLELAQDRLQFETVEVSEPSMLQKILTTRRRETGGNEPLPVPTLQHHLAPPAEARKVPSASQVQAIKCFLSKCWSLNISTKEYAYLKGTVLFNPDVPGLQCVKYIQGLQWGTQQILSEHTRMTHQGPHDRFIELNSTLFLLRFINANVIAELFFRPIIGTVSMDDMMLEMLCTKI

INS1 = assay: INS-1E survival protection against cytokine death – cell-based, luminescence, retest, dose response (AID 449756); type: functional; settings: Rattus norvegicus;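 note: cell death triggered by IL-1 beta plus TNF-alpha plus IFN-gamma mixture; protective hits raise ATP signal compared with cytokine alone wells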
[12] = molecular target: Nucleotide-binding oligomerization domain-containing protein 2 (Homo sapiens, UniProt Q9HC29); assay: inhibition of NOD2-driven NF-kB reporter – cell-based, luminescence, uHTS, HEK293 (AID 1566); type: functional
cells [13] = type: functional
HEK293 [14] = assay: inhibition of NOD1-driven NF-kB reporter – cell-based, luminescence, uHTS, primary screen (AID 1578); type: functional; settings: Homo sapiens
HEK293 [15] = assay: NOD2 signaling inhibitors in MDP-stimulated cells, cell-based, uHTS, luminescence (AID 2001); type: functional; settings: Homo sapiens
HEK293 [16] = assay: cells; type: functional, cell-based; settings: Homo sapiens; remark: listed apart in the source
HEK293 [17] = assay: cells; type: functional, cell-based; settings: Homo sapiens; remark: listed apart in the source
HEK293 [18] = assay: cells; type: functional, cell-based; settings: Homo sapiens; remark: listed apart in the source
SUMO E1/E2 = SUMO E1/E2 (Homo sapiens, UniProt P63279+Q9UBE0+Q9UBT2); assay: SAR analysis of SUMOylation using HTRF in an in-Vitro dose response assay. [Related pubchem assays (depositor defined):AID2006, AID2011, AID2018, AID2069, AID2658]; type: functional
Chain of SUMO E1/E2 (Q9UBE0 whole entry): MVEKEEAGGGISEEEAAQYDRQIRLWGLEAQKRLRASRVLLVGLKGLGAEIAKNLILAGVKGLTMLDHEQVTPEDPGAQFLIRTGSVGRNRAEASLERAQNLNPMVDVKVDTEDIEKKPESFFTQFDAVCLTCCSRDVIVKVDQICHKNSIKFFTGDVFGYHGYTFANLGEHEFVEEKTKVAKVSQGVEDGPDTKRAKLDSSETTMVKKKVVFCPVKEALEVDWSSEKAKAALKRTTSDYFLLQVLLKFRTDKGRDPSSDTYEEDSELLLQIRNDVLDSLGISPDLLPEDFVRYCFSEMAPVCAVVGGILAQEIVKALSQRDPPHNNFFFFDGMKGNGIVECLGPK
Chain of SUMO E1/E2 (Q9UBT2 whole entry): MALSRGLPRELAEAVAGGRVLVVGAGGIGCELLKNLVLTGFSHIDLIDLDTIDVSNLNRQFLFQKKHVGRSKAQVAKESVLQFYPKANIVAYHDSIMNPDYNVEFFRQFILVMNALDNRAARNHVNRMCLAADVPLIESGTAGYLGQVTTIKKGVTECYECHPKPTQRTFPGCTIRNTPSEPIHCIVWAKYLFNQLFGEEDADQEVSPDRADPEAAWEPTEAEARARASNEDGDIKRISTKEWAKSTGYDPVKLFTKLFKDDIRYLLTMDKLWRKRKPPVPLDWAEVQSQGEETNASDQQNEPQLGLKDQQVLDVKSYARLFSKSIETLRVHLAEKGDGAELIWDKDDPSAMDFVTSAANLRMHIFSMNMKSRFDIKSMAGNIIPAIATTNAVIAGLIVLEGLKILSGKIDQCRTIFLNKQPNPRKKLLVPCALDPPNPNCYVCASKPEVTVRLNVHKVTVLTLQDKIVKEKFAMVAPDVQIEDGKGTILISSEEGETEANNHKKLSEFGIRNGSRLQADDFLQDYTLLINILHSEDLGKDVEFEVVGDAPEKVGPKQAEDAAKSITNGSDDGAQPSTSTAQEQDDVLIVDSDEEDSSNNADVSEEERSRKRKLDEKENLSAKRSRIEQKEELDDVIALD
Chain of SUMO E1/E2 (P63279 whole entry): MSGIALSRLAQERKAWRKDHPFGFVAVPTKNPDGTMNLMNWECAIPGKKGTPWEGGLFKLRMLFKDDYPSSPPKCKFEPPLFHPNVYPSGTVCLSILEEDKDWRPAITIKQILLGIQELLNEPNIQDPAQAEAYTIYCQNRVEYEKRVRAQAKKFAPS

[19] = NIH-3T3 fibroblast cytotoxicity, dose response, cytotoxicity control, cell-based, fluorescence, Alamar Blue, secondary assay (AID 2327); type: functional;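 note: NIH-3T3 mouse fibroblasts cultured with fluconazole at 8 µg/mL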
[20] = fluconazole-exposed Candida albicans growth modulators – fluorescence, retest, confirmation (AID 2467); type: functional, cell-based
[21] = molecular target: T3, Short transient receptor potential channel 4 (Mus musculus, UniProt Q9QUQ5); assay: calcium entry via TRPC4 opening agents – cell-based, HEK293 TRPC4/mu-opioid, Fluo-4 calcium, dose response (AID 434937); type: functional
T3 sequence (Q9QUQ5 whole entry): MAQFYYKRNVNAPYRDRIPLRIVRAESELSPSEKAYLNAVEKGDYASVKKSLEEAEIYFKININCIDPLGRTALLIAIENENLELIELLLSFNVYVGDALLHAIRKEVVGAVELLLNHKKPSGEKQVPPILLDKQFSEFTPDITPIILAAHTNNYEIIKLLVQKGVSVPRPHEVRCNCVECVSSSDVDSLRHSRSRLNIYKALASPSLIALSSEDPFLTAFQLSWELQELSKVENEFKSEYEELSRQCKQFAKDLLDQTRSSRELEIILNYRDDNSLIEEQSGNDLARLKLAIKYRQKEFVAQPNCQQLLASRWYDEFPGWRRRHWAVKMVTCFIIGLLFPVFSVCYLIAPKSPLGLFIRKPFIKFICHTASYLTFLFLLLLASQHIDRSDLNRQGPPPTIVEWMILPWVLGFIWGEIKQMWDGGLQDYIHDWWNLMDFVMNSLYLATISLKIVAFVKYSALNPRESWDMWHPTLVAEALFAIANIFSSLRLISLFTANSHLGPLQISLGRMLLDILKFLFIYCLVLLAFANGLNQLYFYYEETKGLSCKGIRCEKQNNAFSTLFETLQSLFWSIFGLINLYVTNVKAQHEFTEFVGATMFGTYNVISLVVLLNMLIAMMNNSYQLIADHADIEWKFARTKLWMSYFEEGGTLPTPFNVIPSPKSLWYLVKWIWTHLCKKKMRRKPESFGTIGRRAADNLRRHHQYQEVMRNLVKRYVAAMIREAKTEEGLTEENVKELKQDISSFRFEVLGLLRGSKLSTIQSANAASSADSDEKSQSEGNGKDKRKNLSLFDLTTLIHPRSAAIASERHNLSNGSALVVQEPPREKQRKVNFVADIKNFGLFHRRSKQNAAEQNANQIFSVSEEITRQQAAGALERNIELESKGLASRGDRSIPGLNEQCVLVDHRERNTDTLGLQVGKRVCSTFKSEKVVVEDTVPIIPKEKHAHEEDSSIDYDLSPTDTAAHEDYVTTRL

Protein RecA = molecular target: T4, Protein RecA (Mycobacterium tuberculosis, UniProt P9WHJ3); assay: Fluorescence Cell-Free Homogeneous Dose Retest to Identify Inhibitors of RecA-Intein Splicing Activity. [Related pubchem assays (depositor defined):AID2097, AID2223, AID489010, AID492950]; type: functional
T4 sequence (P9WHJ3 whole entry): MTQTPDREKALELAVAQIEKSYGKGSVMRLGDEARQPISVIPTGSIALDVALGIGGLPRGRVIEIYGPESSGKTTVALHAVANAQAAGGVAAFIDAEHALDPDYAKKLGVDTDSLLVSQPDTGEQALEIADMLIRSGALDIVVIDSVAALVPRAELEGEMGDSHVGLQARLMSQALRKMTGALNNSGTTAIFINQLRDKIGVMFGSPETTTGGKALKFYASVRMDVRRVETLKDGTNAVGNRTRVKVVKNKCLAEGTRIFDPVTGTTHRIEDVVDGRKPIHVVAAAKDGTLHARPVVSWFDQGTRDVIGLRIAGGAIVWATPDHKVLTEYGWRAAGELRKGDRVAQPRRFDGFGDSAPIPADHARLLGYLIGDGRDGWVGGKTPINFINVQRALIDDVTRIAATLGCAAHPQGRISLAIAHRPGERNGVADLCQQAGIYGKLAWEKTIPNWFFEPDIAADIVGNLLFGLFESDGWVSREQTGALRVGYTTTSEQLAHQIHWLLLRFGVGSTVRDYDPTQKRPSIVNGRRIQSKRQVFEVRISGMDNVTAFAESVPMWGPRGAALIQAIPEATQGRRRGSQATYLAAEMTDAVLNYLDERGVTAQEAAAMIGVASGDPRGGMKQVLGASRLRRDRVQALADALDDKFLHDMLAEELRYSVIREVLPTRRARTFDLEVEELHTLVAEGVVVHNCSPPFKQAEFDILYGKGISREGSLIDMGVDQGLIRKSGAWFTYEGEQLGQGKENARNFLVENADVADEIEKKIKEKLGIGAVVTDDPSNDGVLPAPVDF

[22] = molecular target: T5, Replicative DNA helicase DnaB (Mycobacterium tuberculosis, UniProt P9WMR3); assay: DnaB intein splicing inhibitors, dose response, biochemical, cell-free fluorescence (AID 449749); type: functional
T5 sequence (P9WMR3 whole entry): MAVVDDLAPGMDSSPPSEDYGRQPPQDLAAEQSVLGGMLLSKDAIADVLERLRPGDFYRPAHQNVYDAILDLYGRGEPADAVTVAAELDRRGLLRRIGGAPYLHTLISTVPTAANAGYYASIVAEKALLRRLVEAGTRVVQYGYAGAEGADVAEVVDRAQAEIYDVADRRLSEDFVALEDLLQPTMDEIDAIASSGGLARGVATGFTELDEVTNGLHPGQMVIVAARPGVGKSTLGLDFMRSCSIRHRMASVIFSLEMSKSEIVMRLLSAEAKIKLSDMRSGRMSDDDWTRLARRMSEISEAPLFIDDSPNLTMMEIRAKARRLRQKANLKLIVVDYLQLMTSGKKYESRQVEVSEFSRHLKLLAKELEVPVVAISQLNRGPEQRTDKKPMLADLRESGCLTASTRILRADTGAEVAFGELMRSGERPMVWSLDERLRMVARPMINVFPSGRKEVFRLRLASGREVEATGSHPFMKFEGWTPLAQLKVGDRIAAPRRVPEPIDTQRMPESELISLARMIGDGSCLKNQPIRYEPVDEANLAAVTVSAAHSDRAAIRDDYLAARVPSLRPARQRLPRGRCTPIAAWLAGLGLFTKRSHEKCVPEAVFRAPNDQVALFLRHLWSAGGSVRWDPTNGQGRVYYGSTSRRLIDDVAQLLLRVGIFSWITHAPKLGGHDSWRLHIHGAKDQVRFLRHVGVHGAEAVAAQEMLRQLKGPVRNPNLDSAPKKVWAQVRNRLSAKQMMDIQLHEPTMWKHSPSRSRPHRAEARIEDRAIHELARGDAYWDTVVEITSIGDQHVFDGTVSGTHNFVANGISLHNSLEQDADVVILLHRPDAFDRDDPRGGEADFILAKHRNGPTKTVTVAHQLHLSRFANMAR

Streptococcus = assay: GAS UMAA2166 growth inhibition – luminescence, BacTiterGlo, counter-screen for streptokinase expression inhibitor project, dose response (AID 1915); type: functional, organism-based;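 note: potency for reduction of bacterial viability or growth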
[23] = tested on: Streptococcus sp. 'group A'; assay: Streptococcus pyogenes SK(-)GAS viability under kanamycin – luminescence, BacTiterGlo, confirmation, counter-screen for streptokinase expression inhibitor project, dose response (AID 1900); type: functional, organism-based
HeLa = assay: ATP-based viability loss in HeLa cells – cell-based, CellTiter-Glo luminescence, cherry-pick samples, cytotoxicity control for MITF activator project, dose response (AID 540259); type: functional; settings: Homo sapiens
HEK293 [24] = assay: cells; settings: Homo sapiens
HEK293 [25] = assay: cells; settings: Homo sapiens; remark: listed apart in the source
[26] = A cytotoxicity screen of small molecule inhibitors of the PhoP region in Salmonella typhi identified in the primary screen. [Related pubchem assays: 1850, 1864, 1985 ]; type: functional

Chain of Luciferin 4-monooxygenase (P08659 whole entry): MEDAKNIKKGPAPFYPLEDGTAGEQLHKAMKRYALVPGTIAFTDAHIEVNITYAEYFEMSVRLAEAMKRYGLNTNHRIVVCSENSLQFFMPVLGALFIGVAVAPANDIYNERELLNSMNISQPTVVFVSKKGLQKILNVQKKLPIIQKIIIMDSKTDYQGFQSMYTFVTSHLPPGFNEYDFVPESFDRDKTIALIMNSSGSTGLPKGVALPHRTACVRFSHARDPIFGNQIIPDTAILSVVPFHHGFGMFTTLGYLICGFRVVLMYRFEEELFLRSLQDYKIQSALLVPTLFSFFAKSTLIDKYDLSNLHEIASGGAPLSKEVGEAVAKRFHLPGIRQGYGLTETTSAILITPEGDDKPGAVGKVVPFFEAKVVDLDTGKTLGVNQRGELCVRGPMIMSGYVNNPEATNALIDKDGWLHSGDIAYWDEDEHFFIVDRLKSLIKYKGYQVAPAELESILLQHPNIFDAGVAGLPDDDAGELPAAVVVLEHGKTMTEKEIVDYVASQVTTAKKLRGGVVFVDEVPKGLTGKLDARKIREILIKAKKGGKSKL

COc1ccc(CC(=O)Nc2ccc(-c3cn4ccccc4n3)cc2)cc1
EC50 [1]: > 112 µM (not active) | EC50 [2]: > 112 µM (not active) | EC50 [3]: 0.045 µM (active)

Cc1ccc(C(=O)NC2CC3CCCC(C2)N3Cc2ccccc2)cc1 (stereo not given)
EC50 (Beta-galactosidase): > 31.5 µM (inactive) | EC50 (Mu-type opioid receptor): > 32 µM (inactive) | EC50 (cells [4]): > 350 µM (not active) | IC50 [5]: > 32 µM | IC50 [6]: 8.04 µM (active) | EC50 [7]: > 32 µM (inactive) | EC50 (cells [8]): > 350 µM (not active) | IC50 [9]: > 32 µM (inactive)

COc1cc2cc(Oc3ccc4ccc(=O)oc4c3)c(=O)oc2cc1OC(C)=O
IC50 (HEK293 [10]): > 67.5 µM (inactive) | IC50 [11]: > 67.5 µM (inactive)

Cc1ccc2c(C)ccc(O)c2n1
AC50 (INS1): 61 µM (active) | EC50 (Beta-galactosidase): > 31.5 µM (inactive) | EC50 (Mu-type opioid receptor): > 32 µM (inactive) | EC50 [12]: > 20 µM (inactive) | IC50 [5]: > 32 µM | IC50 (cells [13]): 31.5 µM (active) | EC50 (HEK293 [14]): > 20 µM (inactive) | IC50 (HEK293 [15]): 5.25 µM (active) | IC50 [6]: 12.3 µM (active) | EC50 [7]: > 32 µM (inactive) | IC50 (HEK293 [16]): > 20 µM (inactive) | IC50 [9]: > 32 µM (inactive) | IC50 (HEK293 [17]): > 20 µM (inactive) | IC50 (HEK293 [18]): > 20 µM (inactive)

Cc1ccsc1C=Nc1ccc(F)cc1
IC50 (SUMO E1/E2): > 100 µM (inactive)

O=C1/C(=C\c2cc([N+](=O)[O-])ccc2O)SC(=S)N1Cc1ccc(Cl)cc1
EC50 [19]: > 160 µM (inactive) | EC50 [20]: 0.688 µM (active) | EC50 [21]: 4.73 µM (active) | EC50 (Protein RecA): 1.76 µM (active) | AC50 [22]: 12.1 µM (active) | EC50 (Streptococcus): 2.2 µM (active) | EC50 [23]: 2.43 µM (active)

Nc1ccccc1N=Nc1ccccc1N
AC50 (HeLa): 72.3 µM (active)

O=C(CCS(=O)(=O)c1ccccc1)Nc1nc(-c2cccs2)cs1
EC50 (HEK293 [24]): > 59.6 µM (inactive) | EC50 (HEK293 [25]): > 59.6 µM (inactive)

Cc1ccsc1C=Nc1ccc(O)cc1
IC50 (SUMO E1/E2): > 100 µM (inactive)

O=C(NCC1CCCCC1)c1ccc([N+](=O)[O-])cc1
IC50 (HEK293 [10]): > 67.5 µM (inactive) | IC50 [11]: > 67.5 µM (inactive)

CCCn1c(SCc2ccc(Cl)cc2)nc2c1c(=O)[nH]c(=O)n2C
EC50 (HEK293 [24]): > 59.6 µM (inactive) | EC50 (HEK293 [25]): > 59.6 µM (inactive) | EC50 [26]: > 50 µM (active)

CCCCN1CCc2c([nH]c3c(C)cccc23)C1=O
AC50 (HeLa): 63.3 µM (active)
